SMILES strings stand for the structures.

One data set relates to NNRTI-resistant viruses. Kind of data set: Cytopathic antiviral assay in MT-2 cells, NNRTI-resistant viruses. Format: cell-based, HIV-1. Particulars: for EC50 Fold-Change: Mutant/WT (HXB2D) EC50 ratio, mean ± s.d. of three experiments. As for the experimental part:
The antiviral activity of the compound of Formula (a) was tested against a panel of known HIV-1 mutants resistant to HIV PIs (ATV and DRV), NRTIs (TFV and FTC), NNRTIs (RPV and EFV) or INSTIs (RAL, EVG and DTG) using a cytopathic antiviral assay in MT-2 cells. The compound of Formula (Ia) was fully active against all tested mutants resistant to PIs (Table 11), NRTIs (Table 12), NNRTIs (Table 13) or INSTIs (Table 14).
Background: Cytopathic effects are the visible damage that an infection or toxin causes in cultured cells.

In a further data set the test system is WT LAI. Kind of data set: microbe, parasite or virus in culture. Format: cell-based, HIV-1. Particulars: Human immunodeficiency virus 1, MT2, read-out: WT LAI EC50. As for the experimental part:
The antiviral activity of the compound of Formula (a) was tested against a panel of known HIV-1 mutants resistant to HIV PIs (ATV and DRV), NRTIs (TFV and FTC), NNRTIs (RPV and EFV) or INSTIs (RAL, EVG and DTG) using a cytopathic antiviral assay in MT-2 cells.

Data set [1] is described as follows: Plasma PK after single oral administration in solution, dog. Format: in vivo, Beagle Dog. As for the experimental part:
An oral formulation containing a compound of Formula (Ia) in […], 20% propylene glycol, 45 PEG 300, and 30% 0.01 N HCl was prepared. The formulation was orally administered to male rat, dog, cynomolgus monkey, and rhesus monkey according to the doses shown in Table 8 below.

The mark [2] stands for this setting: male, beagle, plasma, dog, single oral 4.0 mg/kg, solution in 5% ethanol/20% propylene glycol/45% PEG 300/30% 0.01 N HCl, mean ± SD, n=3.

As for `CC(C)(C#Cc1ccc(-c2ccc(Cl)c3c(NS(C)(=O)=O)nn(CC(F)(F)F)c23)c([C@H](Cc2cc(F)cc(F)c2)NC(=O)Cn2nc(C(F)(F)F)c3c2C(F)(F)[C@@H]2C[C@H]32)n1)S(C)(=O)=O` [Formula (Ia), N—((S)-1-(3-(4-chloro-3-(methylsulfonamido)-1-(2,2,2-trifluoroethyl)-1H-indazol-7-yl)-6-(3-methyl-3-(methylsulfonyl)but-1-yn-1-yl)pyridin-2-yl)-2-(3,5-difluorophenyl)ethyl)-2-((3bS,4aR)-5,5-difluoro-3-(trifluoromethyl)-3b,4,4a,5-tetrahydro-1H-cyclopropa[3,4]cyclopenta[1,2-c]pyrazol-1-yl)acetamide], the “EC50 Fold-Change” value in the data set with NNRTI-resistant viruses (K103N) was determined as 0.3 ± 0.1; with NNRTI-resistant viruses (K103N/Y181C), 0.5 ± 0.2; in the data set on NNRTI-resistant viruses (L100I/K103N), 0.5 ± 0.2; in the data set on NNRTI-resistant viruses (Y181C) it was 1.6 ± 1.0; in the data set on NNRTI-resistant viruses (Y188L) it was 0.5 ± 0.1. Moreover, in the data set with NNRTI-resistant viruses (mutants resistant to NNRTIs), the “activity against all tested mutants, in words” value is recorded as “fully active”. Also, in the data set on WT LAI, the EC50 (as a rule, the concentration at which the effect is half-maximal) was 140 ± 30 pM. Also, the “F % (bioavailability), in words” value in data set [1] (dogs, oral solution) was “moderate”. In addition, in data set [1] (male, beagle, plasma, dog, single oral 4.0 mg/kg, same solution, calculated based on AUC0-72h, mean ± SD, n=3, read-out: F (oral bioavailability)), the bioavailability (commonly dose-corrected exposure relative to a reference, in per cent) is 22.1 ± 8.4%. Further, in data set [1] (setting [2]), the area under the curve AUC(0-inf) (commonly the area under the concentration-time curve extrapolated to infinity) was found to be 16500 ± 10400 µM·h. Moreover, the Cmax – broadly, the peak of the concentration-time curve – in data set [1] (setting [2]) worked out at 471 ± 203 µM. Further, the Tmax (commonly the time from dosing to the highest level) in data set [1] (setting [2]) was found to be 10.7 ± 11.5 h. For the same compound, the AUC(0-t) in data set [1] (male, beagle, plasma, dog, single oral 4.0 mg/kg, solution in 5% ethanol/20% propylene glycol/45% PEG 300/30% 0.01 N HCl, mean ± SD, n=3, read-out: AUC0-72h) is 11400 ± 4320 µM·h.

(Values after patent publication US12594267B2, “Capsid inhibitors for the treatment of HIV” (Gilead Sciences, Inc., priority 2018, dated 2026).)
